These results are taken from US8741853B2, “Mitochondria-targeting antioxidant therapeutics” (priority 2007, dated 2014).

Like-named read-outs stand apart in the source and are kept apart here.

Data set [1] deals with mitochondrial membrane potential (ΔΨm) in SHSY-5Y neuroblastoma cells. The note with it: FRET-based ΔΨm assay, reference agent, cited from earlier work.
The test system is the same in data set [2]. In words: FRET-based ΔΨm assay (NAO/TMRE), compound alone and Ca2+-induced ΔΨm collapse. It counts as cell-based. The note with it: concentration not given; for B-C response, typical values: reference agents alone; for % Ca^2+ response score (comparison agents): reference agents.
The subject of data set [3] is human tumor cell lines FaDu and Jurkat, Ki-v-Ras-transformed Balb/c-3T3 murine mesenchymal cell line. The note with it: cited from earlier work.
The conditions of data set [4]: humans; cited from earlier work.
Data set [5] deals with caspase-3 activation in SHSY-5Y cells. In words: Caspase-3 activation induced by ethacrynic acid plus thapsigargin. It is filed as cell-based. The conditions noted are these: positive control, 24 hr ethacrynic acid/thapsigargin stress. As for the experimental part: The potential ability of test compound Nos. 1-10 individually to moderate caspase activation was therefore examined using SHSY-5Y cells, in accordance with the Dykens assay.
In the Dykens assay method, caspase activation is induced by 24 hr exposure to a combined stress of ethacrynic acid (25 to derivatize glutathione and induce oxidative stress, and thapsigargin (1 μM), to induce a chronic increase in cytosolic Ca^2+. Caspase activity is determined using a fluorogenic substrate, with rates normalized to cell number; and is expressed as % response of controls on every plate exposed to ethacrynate and thapsigargen in the absence of compound. Compound Nos. 1-10 at 10 μM were separately introduced for reaction at the same time as the ethycrynic acid/thapsigargin addition, and were present throughout the 24 hr incubation period.

Setting [6] is: read-out: EC50, prevent Ca^2+ uptake via uniporter inhibition.

`Nc1ncnc2c1ncn2[C@@H]1O[C@H](COP(=O)(O)OP(=O)(O)O)[C@@H](O)[C@H]1O` [ADP]: in data set [1] (read-out: EC50, dissipate ΔΨm under physiological circumstances), the concentration for a half-maximal effect (EC50) – broadly, the concentration at which the effect is half-maximal – was 122000 nM.

On to `N#CC(C#N)=NNc1cccc(Cl)c1` [CCCP], for which, in data set [1] (read-out: EC50, collapse ΔΨm), the EC50 was 2000 nM. For the same molecule, the “B-C response, typical values” in data set [2] is on record as around −1800 RFU.

As for `O=C(O)CCCCC1CCSS1` (stereo not drawn) [alpha-lipoic acid, 1,2-dithiolane-3-pentanoic acid], the “Apoptosis in tumor cell lines” value in data set [3] is on record as “induces apoptosis”. For the same molecule, in data set [4], the plasma half-life result is reported as “less than 1 hour” and the “time to excretion, mainly in the urine” value was at most 24 h.

In the case of `CO[C@H](C/C=C\C=C\CC/C=C/C[C@H](C)/C=C/C(=C\C(=O)O)CC(=O)O)/C(C)=C\C=C(/C)C(=O)O` [bongkrekate], the EC50 in data set [1] (read-out: EC50, inhibit Ca^2+-mediated ΔΨm loss) is 77 nM. Further, in data set [2], the “B-C response, typical values” is around 600 RFU and the “% Ca^2+ response score (comparison agents)” value was found to be 44%.

In the case of `CC[C@H]1/C=C/C=C/C[C@@H](C)[C@H](O)[C@@](C)(O)C(=O)[C@@H](C)[C@H](O)[C@@H](C)C(=O)[C@@H](C)[C@H](O)[C@@H](C)/C=C/C(=O)O[C@@H]2[C@H](C)[C@H](CC1)O[C@]1(CC[C@H](C)[C@H](C[C@@H](C)O)O1)[C@H]2C` [oligomycin], the EC50 in data set [1] (read-out: EC50, hyperpolarize ΔΨm) is 26 nM.

As for `N.N.N.N.N.N.N.N.N.N.N.N.N.N.[Cl-].[Cl-].[Cl-].[Cl-].[Cl-].[Cl-].[O-2].[O-2].[Ru+3].[Ru+3].[Ru+4]` [ruthenium red], in data set [1] (setting [6]), the concentration giving a half-maximal response (EC50) was 270 nM. Moreover, the “% Ca^2+ response score (comparison agents)” value in data set [2] is listed as 9%.

“IGF-1: positive control in caspase-3 activation assay”: the “Reduction of caspase activity” value in data set [5] is reported as 64%.

As to RU-360, the EC50 in data set [1] (setting [6]) is 12 nM.
